US20210171948A1, “COMPOSITIONS AND METHODS FOR TARGETING GLYPICAN-2 IN THE TREATMENT OF CANCER” (Shepherd Therapeutics, Inc., priority 2019, published 2021)
pIC50: −log10 of the molar value. Strand notation (5' to 3'): a small letter for the sugar, then the base; units joined by * are phosphorothioate-linked, units joined directly phosphodiester-linked; [ ] holds rarer units or linkages, { } end groups; capitals alone tell only the bases. d = 2'-deoxy (DNA); r = 2'-OH (RNA)

What was measured:
GPC2 mRNA [1] = assay: GPC2 mRNA knockdown in neuroblastoma cell lines (Example 4); format: cell-based, human
Method: GPC2 mRNA knockdown was assessed in multiple neuroblastoma cell lines. Cells were transfected with either a scrambled control siRNA, with GPC2 siRNA sequences 3 or 5 from Table 7, or with siRNA sequences generated by Dharmacon (sequences 12-15 from Table 7) using the RNAiMAX Lipofectamine kit (Invitrogen, Carlsbad, Calif.) as previously described. Following a 96 hour incubation period, total RNA samples were collected to compare knockdown efficiency and viability was measured in parallel plated cells.
The extent of GPC2 mRNA reduction was assessed with additional GPC2 siRNA sequences in the CHP212 neuroblastoma cell line. Cells were transfected with either a scrambled control siRNA or with GPC2 siRNA sequences 3 or 5, or with siRNA sequences 6-11 (Sigma) using the RNAiMAX Lipofectamine kit (Invitrogen, Carlsbad, Calif.) as previously described. Following a 96 hour incubation period, total RNA samples were collected and viability was measured in parallel plated cells.
The extent of GPC2 mRNA reduction (knockdown) and corresponding protein level expression changes were assessed in three neuroblastoma cell lines following siRNA knockdown of GPC2. The CHP212 neuroblastoma cell line (FIG. 5A and FIG. 5D), the SH-SY5Y neuroblastoma cell line (FIG. 5B and FIG. 5E) and the CHLA90 neuroblastoma cell line (FIG. 5C and FIG. 5F) were transfected with GPC2 siRNA sequences 5 and 7 from Table 7 and a scrambled control siRNA using the RNAiMAX Lipofectamine kit (Invitrogen, Carlsbad, Calif.) as previously described. Following a 24, 48, or 72 hour incubation period, cells were washed and total RNA was isolated for measuring GPC2 mRNA expression. For protein analysis, cells were fixed, immunostained using an antibody against GPC2 protein, protein expression was measured via flow cytometry. As shown, GPC2 mRNA knockdown was observed beginning at the 24 hr time point and lasted for at least 72 hours. GPC2 protein expression started to decrease at the 48 hr time point.

GPC2 mRNA [2] = assay: GPC2 mRNA knockdown in neuroblastoma cell lines, representative data from a separate experiment (Tables 10-14); format: cell-based, human; set-up: concentration or dose not given beside the values
CHLA-90 cells [3] = assay: Carboplatin IC50 in siRNA-transfected cells, Cell Titer Glo 2.0 viability (Example 6); format: cell-based
Method: (§1) GPC2 mRNA expression was reduced using the indicated siRNAs and changes in cell viability were assessed in multiple neuroblastoma cell lines. Cells were transfected with either a control siRNA or with GPC2 siRNA sequences 3, 5 or 7 from Table 7 using the RNAiMAX Lipofectamine kit (Invitrogen, Carlsbad, Calif.) as previously described in 96 wells for viability assays. Carboplatin was added at increasing concentrations (0 to 150 uM) to transfected cells at 24 hours post transfection. Following a 72 hour incubation period, viability measurements were made using Cell Titer Glo 2.0.

SH-SY5Y cells [4] = assay: as above; format: cell-based
Method: as §1

SK-N-BE2 cells [5] = assay: as above; format: cell-based
Method: as §1

CHP212 cells [6] = assay: as above; format: cell-based
Method: as §1

CHLA-90 cells [7] = assay: Cyclophosphamide IC50 in siRNA-transfected cells, Cell Titer Glo 2.0 viability (Example 7); format: cell-based
Method: (§2) GPC2 mRNA expression was reduced with the indicated siRNAs and changes in cell viability were assessed in multiple neuroblastoma cell lines. Cells were transfected with either a control siRNA or with GPC2 siRNA sequences 3, 5 or 7 from Table 7 using the RNAiMAX Lipofectamine kit (Invitrogen, Carlsbad, Calif.) as previously described in 96 wells for viability assays. Cyclophosphamide was added at increasing concentrations (0-20 uM) to transfected cells at 24 hr post transfection. Following a 72 hour incubation period, viability measurements were made using Cell Titer Glo 2.0.

SH-SY5Y cells [8] = assay: as above; format: cell-based
Method: as §2

SK-N-BE2 cells [9] = assay: as above; format: cell-based
Method: as §2

CHP212 cells [10] = assay: as above; format: cell-based
Method: as §2

CHLA-90 cells [11] = assay: Etoposide IC50 in siRNA-transfected cells, Cell Titer Glo 2.0 viability (Example 9); format: cell-based
Method: (§3) GPC2 mRNA expression was reduced and changes in cell viability were assessed in multiple neuroblastoma cell lines. Cells were transfected with either a control siRNA or with GPC2 siRNA sequences 3, 5 or 7 from Table 7 using the RNAiMAX Lipofectamine kit (Invitrogen, Carlsbad, Calif.) as previously described in 96 wells for viability assays. Etoposide was added at increasing concentrations (0-15 uM) to transfected cells at 24 hours post transfection. Following a 72 hour incubation period, viability measurement were made using Cell Titer Glo 2.0.

SH-SY5Y cells [12] = assay: as above; format: cell-based
Method: as §3

SK-N-BE2 cells [13] = assay: as above; format: cell-based
Method: as §3

CHP212 cells [14] = assay: as above; format: cell-based; settings: CHP212 cells transfected with the labelled siRNA; etoposide added 24 hours post transfection, 72 hour incubation
Method: as §3

Substance: GPC2 siRNA 7: siRNA duplex: sense CUCCUUUCUGGUUCACACA[dT][dT] (SEQ ID NO: 215), anti-sense UGUGUGAACCAGAAAGGAG[dT][dT] (SEQ ID NO: 216) (sense rCrUrCrCrUrUrUrCrUrGrGrUrUrCrArCrArCrAdTdT; antisense rUrGrUrGrUrGrArArCrCrArGrArArArGrGrArGdTdT; listed as Homo sapiens)
- Time for which reduced GPC2 mRNA expression was sustained (GPC2 mRNA [1]; CHLA90 neuroblastoma cells (FIG. 5C)): 72 h
- Time point at which GPC2 mRNA knockdown was first observed (GPC2 mRNA [1]; CHP212, SH-SY5Y and CHLA90 neuroblastoma cell lines): 24 h
- Degree of GPC2 knockdown among sequences 3, 5, 6-11 (GPC2 mRNA [1]; CHP212 neuroblastoma cell line, 96 hour incubation (FIG. 4A)): greater
- Time for which reduced GPC2 mRNA expression was sustained (GPC2 mRNA [1]; CHP212 neuroblastoma cells (FIG. 5A)): 72 h
- Time for which reduced GPC2 mRNA expression was sustained (GPC2 mRNA [1]; SH-SY5Y neuroblastoma cells (FIG. 5B)): 72 h
- % KD; percent GPC2 mRNA reduction (knockdown) (GPC2 mRNA [2]; CHLA-90, compared to scrambled siRNA control): 65%
- % KD; percent GPC2 mRNA reduction (knockdown) (GPC2 mRNA [2]; CHLA-136, compared to scrambled siRNA control): 30%
- % KD; percent GPC2 mRNA reduction (knockdown) (GPC2 mRNA [2]; CHLA-172, compared to scrambled siRNA control): 20%
- % KD; percent GPC2 mRNA reduction (knockdown) (GPC2 mRNA [2]; CHP212, compared to scrambled siRNA control): 70%
- % KD; percent GPC2 mRNA reduction (knockdown) (GPC2 mRNA [2]; KELLY, compared to scrambled siRNA control): 73%
- % KD; percent GPC2 mRNA reduction (knockdown) (GPC2 mRNA [2]; SH-SY5Y, compared to scrambled siRNA control): 70%
- % KD; percent GPC2 mRNA reduction (knockdown) (GPC2 mRNA [2]; SK-N-BE2, compared to scrambled siRNA control): 69%
- % KD; percent GPC2 mRNA reduction (knockdown) (GPC2 mRNA [2]; SKNAS, compared to scrambled siRNA control): 64%
- Data Summary: effect of knockdown on sensitivity to carboplatin (CHLA-90 cells [3]; CHLA-90): increases sensitivity to
- pIC50 (CHLA-90 cells [3]; CHLA-90 cells transfected with the labelled siRNA, carboplatin added 24 hours post transfection, 72 hour incubation): 4.82
- Data Summary: effect of knockdown on sensitivity to carboplatin (SH-SY5Y cells [4]; SH-SY5Y): increases sensitivity to
- pIC50 (SH-SY5Y cells [4]; SH-SY5Y cells transfected with the labelled siRNA, carboplatin added 24 hours post transfection, 72 hour incubation): 6.33
- Data Summary: effect of knockdown on sensitivity to carboplatin (SK-N-BE2 cells [5]; SK-N-BE2): increases sensitivity to
- pIC50 (SK-N-BE2 cells [5]; SK-N-BE2 cells transfected with the labelled siRNA, carboplatin added 24 hours post transfection, 72 hour incubation): 5.60
- Data Summary: effect of knockdown on sensitivity to carboplatin (CHP212 cells [6]; CHP212): increases sensitivity to
- pIC50 (CHP212 cells [6]; CHP212 cells transfected with the labelled siRNA, carboplatin added 24 hours post transfection, 72 hour incubation): 5.09
- Data Summary: effect of knockdown on sensitivity to cyclophosphamide (CHLA-90 cells [7]; CHLA-90): increases sensitivity to
- pIC50 (CHLA-90 cells [7]; CHLA-90 cells transfected with the labelled siRNA, cyclophosphamide added 24 hr post transfection, 72 hour incubation): 5.00
- Data Summary: effect of knockdown on sensitivity to cyclophosphamide (SH-SY5Y cells [8]; SH-SY5Y): increases sensitivity to
- pIC50 (SH-SY5Y cells [8]; SH-SY5Y cells transfected with the labelled siRNA, cyclophosphamide added 24 hr post transfection, 72 hour incubation): 6.03
- Data Summary: effect of knockdown on sensitivity to cyclophosphamide (SK-N-BE2 cells [9]; SK-N-BE2): increases sensitivity to
- pIC50 (SK-N-BE2 cells [9]; SK-N-BE2 cells transfected with the labelled siRNA, cyclophosphamide added 24 hr post transfection, 72 hour incubation): 6.39
- Data Summary: effect of knockdown on sensitivity to cyclophosphamide (CHP212 cells [10]; CHP212): increases sensitivity to
- pIC50 (CHP212 cells [10]; CHP212 cells transfected with the labelled siRNA, cyclophosphamide added 24 hr post transfection, 72 hour incubation): 5.92
- Data Summary: effect of knockdown on sensitivity to etoposide (CHLA-90 cells [11]; CHLA-90): increases sensitivity to etoposide
- pIC50 (CHLA-90 cells [11]; CHLA-90 cells transfected with the labelled siRNA, etoposide added 24 hours post transfection, 72 hour incubation): 6.89
- Data Summary: effect of knockdown on sensitivity to etoposide (SH-SY5Y cells [12]; SH-SY5Y): 7 increases sensitivity to etoposide
- pIC50 (SH-SY5Y cells [12]; SH-SY5Y cells transfected with the labelled siRNA, etoposide added 24 hours post transfection, 72 hour incubation): 7.52
- Data Summary: effect of knockdown on sensitivity to etoposide (SK-N-BE2 cells [13]; SK-N-BE2): 7 increases sensitivity to etoposide
- pIC50 (SK-N-BE2 cells [13]; SK-N-BE2 cells transfected with the labelled siRNA, etoposide added 24 hours post transfection, 72 hour incubation): 6.70
- pIC50 (CHP212 cells [14]): 7.70
